Source: patent US20260234107A1, “TRYPTAMINES AND METHODS OF TREATING MOOD DISORDERS” (priority 2022, published 2026)
Like-named read-outs stand apart in the source and are kept apart here.

Assays:
[1] = Stability in rat brain homogenate; assay type: in vitro ADME, male Sprague Dawley rats; conditions: rat brain homogenate, 1 μM, 37° C.; for half-life at 1 µM: male, Sprague Dawley
Protocol: Disclosed compounds were tested for stability in rat brain homogenate (Table 8). There was widely variable stability among the test compounds under the conditions of the experiment.
(§1) Rat Brain Homogenate Stability. Frozen rat brain homogenate (pooled from male Sprague Dawley rats, BioreclamationIVT, RAT00BRAINMZA) was thawed in a water bath at 37° C. immediately prior to use. Positive controls and test compounds (final concentration in incubation medium=1 μM for test compounds and 2 μM for controls, all with 2% DMSO) were incubated in duplicate for each time point (0, 10, 30, 60, and 120 min) in the rat brain homogenate at a total reaction volume of 100 μL at 37° C. At the end of each incubation period, reactions were immediately quenched with 400 μL of acetonitrile containing internal standard (200 ng/mL tolbutamine and 200 ng/mL labetalol) and mixed thoroughly. Plates were then sealed, shaken for 20 min, and centrifuged at 4,000 rpm and 4° C. for 20 min. Aliquots of 50 μL of each supernatant were diluted into 100 μL of water and the mixtures were then shaken again for 10 min.

[2] = Metabolic stability in human liver microsomes (HLM); parameters: microsomal CLint / half-life: dose or concentration left out as unconfirmed; conditions: both, human, pooled human liver microsomes, pH 7.4
5-HT2A = 5-HT2A (Homo sapiens, UniProt P28223); experiment: FLIPR Ca2+ flux agonist assay at 5-HT2A; assay type: cell-based; parameters: host or cells: HEK293; conditions: for 5-HT2A % Act @ Max Dose: HEK293, max dose
Chain of 5-HT2A (P28223 whole entry): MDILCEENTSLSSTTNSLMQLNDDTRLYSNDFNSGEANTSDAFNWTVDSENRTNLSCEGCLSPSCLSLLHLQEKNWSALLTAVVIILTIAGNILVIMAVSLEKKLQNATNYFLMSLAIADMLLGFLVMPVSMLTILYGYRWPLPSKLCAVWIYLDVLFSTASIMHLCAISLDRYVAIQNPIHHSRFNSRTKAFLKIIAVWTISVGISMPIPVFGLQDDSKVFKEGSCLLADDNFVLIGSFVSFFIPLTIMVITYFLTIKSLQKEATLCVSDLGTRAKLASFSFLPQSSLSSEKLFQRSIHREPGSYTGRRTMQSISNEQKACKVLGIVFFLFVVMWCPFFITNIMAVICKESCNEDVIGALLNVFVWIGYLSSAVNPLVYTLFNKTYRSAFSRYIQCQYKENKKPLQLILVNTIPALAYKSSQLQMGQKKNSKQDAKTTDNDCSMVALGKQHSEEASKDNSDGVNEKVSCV
Protocol: (§2) A solution of 250 mM probenecid in 1 mL FLIPR assay buffer was prepared fresh. This was combined with a fluorescent dye (Fluo-4 Direct™) to make a final assay concentration of 2.5 mM. […] The fluorescent dye was then added to the assay plate along with assay buffer to a final volume of 40 μL. The cell plate was incubated for 50 min at 37° C. and 5% CO2 and placed into the FLIPR Tetra along with the compound plate. 10 μL of references and compounds were then transferred from the compound plate into the cell plate and the fluorescent signal was read.

5-HT2B = molecular target: T1, 5-HT2B (Homo sapiens, UniProt P41595); experiment: FLIPR Ca2+ flux agonist assay at 5-HT2B; assay type: cell-based; conditions: for 5-HT2B % Act @ Max Dose: Ca2+ flux, HEK293, max dose
T1 construct: host or cells: HEK293
T1 sequence (P41595 whole entry, species assumed): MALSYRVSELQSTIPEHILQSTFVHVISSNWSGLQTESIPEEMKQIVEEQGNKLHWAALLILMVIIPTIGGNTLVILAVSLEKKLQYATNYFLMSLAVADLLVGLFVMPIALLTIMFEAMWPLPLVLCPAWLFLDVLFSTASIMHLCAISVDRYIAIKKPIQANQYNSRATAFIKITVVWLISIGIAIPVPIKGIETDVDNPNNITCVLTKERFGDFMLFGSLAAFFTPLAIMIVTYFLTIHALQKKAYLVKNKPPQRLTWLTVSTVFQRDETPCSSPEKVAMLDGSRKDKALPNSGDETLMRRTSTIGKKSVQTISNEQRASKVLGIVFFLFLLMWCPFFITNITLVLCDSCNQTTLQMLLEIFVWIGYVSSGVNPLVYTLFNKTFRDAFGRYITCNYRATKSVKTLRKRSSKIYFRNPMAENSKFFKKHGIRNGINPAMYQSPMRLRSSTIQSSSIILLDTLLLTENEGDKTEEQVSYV
Protocol: as §2

5-HT1A = molecular target: T2, 5-HT1A (Homo sapiens, UniProt P08908); experiment: FLIPR Ca2+ flux agonist assay at 5-HT1A; assay type: cell-based; conditions: for 5-HT1A % Act @ Max Dose: Ca2+ flux, CHO cells
T2 construct: host or cells: CHO cells
T2 sequence (P08908 1-422): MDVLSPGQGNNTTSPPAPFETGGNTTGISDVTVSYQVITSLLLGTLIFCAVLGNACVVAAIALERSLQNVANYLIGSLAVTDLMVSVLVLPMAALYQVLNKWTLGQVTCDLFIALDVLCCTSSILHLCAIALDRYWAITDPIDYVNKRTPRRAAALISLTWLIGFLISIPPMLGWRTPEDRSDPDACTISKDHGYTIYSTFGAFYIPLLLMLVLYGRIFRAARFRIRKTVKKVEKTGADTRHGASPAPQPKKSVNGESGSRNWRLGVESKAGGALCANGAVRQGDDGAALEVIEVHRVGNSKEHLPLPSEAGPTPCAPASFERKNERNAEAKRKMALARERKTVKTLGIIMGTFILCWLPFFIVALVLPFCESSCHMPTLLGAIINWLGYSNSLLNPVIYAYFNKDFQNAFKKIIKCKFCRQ
Protocol: as §2

[3] = tested on: monoamine oxidase A and B (MAO-A and MAO-B); experiment: Stability in the presence of monoamine oxidases (human liver mitochondria preparation); parameters: half-life / microsomal CLint: dose or concentration left out as unconfirmed; conditions: for Remaining (t = 60 min) / half-life / microsomal CLint: human liver mitochondria; for half-life / microsomal CLint: human, pH 7.4; for stability in the presence of MAO (in words): human liver mitochondria preparation
Protocol: Liver Mitochondria Incubations. Human liver mitochondria (Xenotech H0610.M) were used.

[4] = Stability in mouse brain homogenate; assay type: in vitro ADME, male CD-1 mice; conditions: mouse brain homogenate, 1 μM, 37° C.; for half-life at 1 µM: male, CD-1
Protocol: Disclosed compounds were tested for stability in mouse brain homogenate (Table 7). There was widely variable stability among the test compounds under the conditions of the experiment.
as §1, with “Mouse Brain” for “Rat Brain”, “Frozen mouse” for “Frozen rat”, “male CD-1 mice,” for “male Sprague Dawley rats,”, “BioreclamationIVT, MSE00BRAINMZA)” for “BioreclamationIVT, RAT00BRAINMZA)”, “the mouse” for “the rat”

[5] = Ca2+ flux, HEK293, read-out: 5-HT2A EC50

SMILES: CCNCCc1c[nH]c2cc(F)cc(O)c12 [Compound 29, 3-(2-(ethylamino)ethyl)-6-fluoro-1H-indol-4-ol]
- half-life at 1 µM [1]: 113 min
- % Compound Remaining (after 120 min) [1]: 51.9%
- half-life [2]: > 145 min
- microsomal CLint [2]: < 9.6 µL/min/mg
- EC50 (5-HT2A): 0.0174 µM
- 5-HT2A % Act @ Max Dose (5-HT2A; Ca2+ flux): 80.80%
- 5-HT2B % Act @ Max Dose (5-HT2B): 12.18%
- 5-HT1A % Act @ Max Dose (5-HT1A): 16.22%
- Remaining (t = 60 min) [3]: 99.1%
- half-life [3]: > 145 min
- microsomal CLint [3]: < 15.9 µL/min/mg
- half-life at 1 µM [4]: 59.9 min
- % Compound Remaining (after 120 min) [4]: 29.9%

SMILES: NCCc1c[nH]c2ccc(F)c(O)c12 [Compound 30, 3-(2-aminoethyl)-5-fluoro-1H-indol-4-ol]
- half-life at 1 µM [1]: 3.9 min
- % Compound Remaining (after 120 min) [1]: 0.1%
- half-life [2]: 9.3 min
- microsomal CLint [2]: 149 µL/min/mg
- EC50 (5-HT2A; [5]): 0.00406 µM
- EC50 (5-HT2B): 0.00462 µM
- 5-HT2B % Act @ Max Dose (5-HT2B): 95.46%
- EC50 (5-HT1A): 5.22 µM
- 5-HT1A % Act @ Max Dose (5-HT1A): 73.4%
- Remaining (t = 60 min) [3]: 0.0%
- half-life [3]: 6.5 min
- microsomal CLint [3]: 356 µL/min/mg
- half-life at 1 µM [4]: 6.4 min
- % Compound Remaining (after 120 min) [4]: 0%

SMILES: NCCc1c[nH]c2cc(F)cc(O)c12 [Compound 31, 3-(2-aminoethyl)-6-fluoro-1H-indol-4-ol]
- half-life at 1 µM [1]: 11.4 min
- % Compound Remaining (after 120 min) [1]: 0%
- half-life [2]: 16.9 min
- microsomal CLint [2]: 81.8 µL/min/mg
- EC50 (5-HT2A; [5]): 0.00636 µM
- EC50 (5-HT2B): 0.00507 µM
- 5-HT2B % Act @ Max Dose (5-HT2B): 99.12%
- EC50 (5-HT1A): 12.5 µM
- 5-HT1A % Act @ Max Dose (5-HT1A): 18.3%
- stability in the presence of MAO (in words) [3]: intermediate stability
- Remaining (t = 60 min) [3]: 24.6%
- half-life [3]: 30.1 min
- microsomal CLint [3]: 76.8 µL/min/mg
- half-life at 1 µM [4]: 20.3 min
- % Compound Remaining (after 120 min) [4]: 1.6%

SMILES: NCCc1c[nH]c2c(F)ccc(O)c12 [Compound 32, 3-(2-aminoethyl)-7-fluoro-1H-indol-4-ol]
- half-life at 1 µM [1]: 9.5 min
- % Compound Remaining (after 120 min) [1]: 0%
- half-life [2]: 16 min
- microsomal CLint [2]: 86.5 µL/min/mg
- EC50 (5-HT2A; [5]): 0.0073 µM
- EC50 (5-HT2B): 0.0303 µM
- 5-HT2B % Act @ Max Dose (5-HT2B): 66.55%
- EC50 (5-HT1A): > 100 µM
- 5-HT1A % Act @ Max Dose (5-HT1A): 38.64%
- stability in the presence of MAO (in words) [3]: intermediate stability
- Remaining (t = 60 min) [3]: 24.0%
- half-life [3]: 28.4 min
- microsomal CLint [3]: 81.4 µL/min/mg
- half-life at 1 µM [4]: 29 min
- % Compound Remaining (after 120 min) [4]: 4.8%

SMILES: CNCCc1c[nH]c2cc(F)cc(O)c12 [Compound 33, 6-fluoro-3-(2-(methylamino)ethyl)-1H-indol-4-ol]
- half-life at 1 µM [1]: 9.1 min
- % Compound Remaining (after 120 min) [1]: 0.4%
- half-life [2]: 10.1 min
- microsomal CLint [2]: 138 µL/min/mg
- EC50 (5-HT2A; [5]): 0.0058 µM
- EC50 (5-HT2B): 0.0285 µM
- 5-HT2B % Act @ Max Dose (5-HT2B): 31.76%
- EC50 (5-HT1A): > 100 µM
- 5-HT1A % Act @ Max Dose (5-HT1A): 3.51%
- Remaining (t = 60 min) [3]: 14.3%
- half-life [3]: 20.2 min
- microsomal CLint [3]: 114 µL/min/mg
- half-life at 1 µM [4]: 16 min
- % Compound Remaining (after 120 min) [4]: 0.6%

SMILES: CNCCc1c[nH]c2c(F)ccc(O)c12 [Compound 34, 7-fluoro-3-(2-(methylamino)ethyl)-1H-indol-4-ol]
- half-life at 1 µM [1]: 3.6 min
- % Compound Remaining (after 120 min) [1]: 0%
- half-life [2]: 6.6 min
- microsomal CLint [2]: 209 µL/min/mg
- EC50 (5-HT2A): 0.0162 µM
- 5-HT2A % Act @ Max Dose (5-HT2A; Ca2+ flux): 77.43%
- EC50 (5-HT2B): > 10 µM
- 5-HT2B % Act @ Max Dose (5-HT2B): 8.09%
- EC50 (5-HT1A): > 100 µM
- 5-HT1A % Act @ Max Dose (5-HT1A): 36.72%
- Remaining (t = 60 min) [3]: 6.4%
- half-life [3]: 15 min
- microsomal CLint [3]: 154 µL/min/mg
- half-life at 1 µM [4]: 21.7 min
- % Compound Remaining (after 120 min) [4]: 1.6%

SMILES: CCCNCCc1c[nH]c2ccc(F)c(O)c12 [Compound 36, 5-fluoro-3-(2-(propylamino)ethyl)-1H-indol-4-ol]
- half-life at 1 µM [1]: 31 min
- % Compound Remaining (after 120 min) [1]: 7.1%
- half-life [2]: 49.9 min
- microsomal CLint [2]: 27.8 µL/min/mg
- EC50 (5-HT2A): 0.0121 µM
- 5-HT2A % Act @ Max Dose (5-HT2A; Ca2+ flux): 71.78%
- EC50 (5-HT2B): 0.0262 µM
- 5-HT2B % Act @ Max Dose (5-HT2B): 44.90%
- EC50 (5-HT1A): > 100 µM
- 5-HT1A % Act @ Max Dose (5-HT1A): 15.31%
- Remaining (t = 60 min) [3]: 0.9%
- half-life [3]: 8.5 min
- microsomal CLint [3]: 272 µL/min/mg
- half-life at 1 µM [4]: 108 min
- % Compound Remaining (after 120 min) [4]: 46.2%

SMILES: CCNCCc1c[nH]c2ccc(C)c(O)c12 [Compound 37, 3-(2-(ethylamino)ethyl)-5-methyl-1H-indol-4-ol]
- half-life at 1 µM [1]: 14.1 min
- % Compound Remaining (after 120 min) [1]: 0.2%
- half-life [2]: 86.8 min
- microsomal CLint [2]: 16 µL/min/mg
- EC50 (5-HT2A): 0.0565 µM
- 5-HT2A % Act @ Max Dose (5-HT2A; Ca2+ flux): 91.0%
- EC50 (5-HT2B): 0.274 µM
- 5-HT2B % Act @ Max Dose (5-HT2B): 16.28%
- EC50 (5-HT1A): 6.95 µM
- 5-HT1A % Act @ Max Dose (5-HT1A): 64.6%
- Remaining (t = 60 min) [3]: 65.1%
- half-life [3]: 88.7 min
- microsomal CLint [3]: 26.1 µL/min/mg
- half-life at 1 µM [4]: 69.9 min
- % Compound Remaining (after 120 min) [4]: 31.3%

SMILES: CCNCCc1c[nH]c2ccc(Cl)c(O)c12 [Compound 38, 5-chloro-3-(2-(ethylamino)ethyl)-1H-indol-4-ol]
- half-life at 1 µM [1]: 9.2 min
- % Compound Remaining (after 120 min) [1]: 0%
- half-life [2]: 13.2 min
- microsomal CLint [2]: 105 µL/min/mg
- EC50 (5-HT2A): 0.0105 µM
- 5-HT2A % Act @ Max Dose (5-HT2A; Ca2+ flux): 103.70%
- EC50 (5-HT2B): 0.0424 µM
- 5-HT2B % Act @ Max Dose (5-HT2B): 43.30%
- EC50 (5-HT1A): 1.84 µM
- 5-HT1A % Act @ Max Dose (5-HT1A): 77.96%
- stability in the presence of MAO (in words) [3]: intermediate stability
- Remaining (t = 60 min) [3]: 22.6%
- half-life [3]: 26.1 min
- microsomal CLint [3]: 88.6 µL/min/mg
- half-life at 1 µM [4]: 17.5 min
- % Compound Remaining (after 120 min) [4]: 0.9%

SMILES: CNCCc1c[nH]c2cc(C)cc(O)c12 [Compound 39, 6-methyl-3-(2-(methylamino)ethyl)-1H-indol-4-ol]
- half-life at 1 µM [1]: 6.3 min
- % Compound Remaining (after 120 min) [1]: 0.1%
- half-life [2]: 9.9 min
- microsomal CLint [2]: 140 µL/min/mg
- EC50 (5-HT2A): 0.0784 µM
- 5-HT2A % Act @ Max Dose (5-HT2A; Ca2+ flux): 76.43%
- EC50 (5-HT2B): > 10 µM
- 5-HT2B % Act @ Max Dose (5-HT2B): 10.04%
- EC50 (5-HT1A): > 100 µM
- 5-HT1A % Act @ Max Dose (5-HT1A): 4.4%
- Remaining (t = 60 min) [3]: 13.5%
- half-life [3]: 17.8 min
- microsomal CLint [3]: 130 µL/min/mg
- half-life at 1 µM [4]: 15.5 min
- % Compound Remaining (after 120 min) [4]: 0.4%
